This note sets out measurements from patent US8822206B2, “Device for high-throughput stimulation, immunostaining, and visualization of single cells” (The Johns Hopkins University, priority 2005, dated 2014).

The experiment relates to NIH3T3 mouse fibroblasts. Briefly: Cell stimulation and anti-p65 immunofluorescence staining in the microfluidic device. The class given is cell-based. Particulars: NIH3T3 mouse fibroblasts in device and on control slides; 10 ng/ml mouse TNF-alpha in media, 10 minutes stimulation. The text has this:
The device was fabricated as described in Example 1. The device was filled with sterile 0.1% gelatin with all of the valves open through an inlet port 11 to coat the parallel fluid channels to promote cell adhesion. Valves were primed with filtered, distilled water. Alternatively, filling may be done with the ports closed as trapped air can be pushed out of the gas-permeable PDMS with hydrostatic pressure. The device was flushed with […] the coating agent. Well-separated NIH3T3 mouse fibroblasts at a concentration of about 9 million cells per ml were introduced into the parallel fluid channels through an inlet port and the device was transferred to a standard 5% CO2, 37° C. cell culture incubator for 3-4 hours to allow the cells to adhere to the glass bottom of the parallel fluid channels.
Using the multiplexer to control flow through the reaction units, a selection of valves were closed to allow for exposure of only a portion of the cells to a stimulant. A syringe containing a solution of 10 ng/ml of mouse TNF-alpha in media was attached to an inlet port, and cells were stimulated, or not, for 10 minutes. […] After secondary antibody staining and washing with DPBS, cells were overlaid with mounting media or other antifade agent to minimize photobleaching, and imaged using fluorescence microscopy. […]

With TNF-alpha, the “localization of p65 (anti-p65 immunofluorescence)” value is “localization of p65 to the nucleus”.
